Source: patent US6525001B1, “Substituted pyrimidine and pyridine herbicides” (Mid-American Commercialization Corporation, priority 1997, dated 2003)

Tests used:
Format in all cases: in vivo
[1] = test system: blackgrass (Alopecurus myosuroides); assay: Test B pre-/postemergence
Method in brief: (§1)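 Seeds were planted and sprayed preemergence, while plants at 2 to 18 cm (1- to 4-leaf stage) were sprayed postemergence at the same time, with test chemical in a non-phytotoxic solvent mixture containing surfactant. After twelve to sixteen days in a greenhouse, injury was rated visually against untreated controls on a 0–10 scale.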

wild oat (Avena fatua) = assay: Test B pre-/postemergence
Method in brief: as §1

rice (Oryza sativa) = assay: Test B flood test; parameters: key: 0 is no effect; 10 is complete control; details: for Plant response rating, Rice: Postemergence (flood test species)
Method in brief: (§2)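 Plants were grown to the 2-leaf stage before treatment with test chemical, then held in a greenhouse for twelve to sixteen days. Injury was visually rated against untreated controls on a 0–10 scale, where 0 is no effect and 10 is complete control.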

[2] = test system: bamyardgrass (Echinochloa crus-galli); assay: Test B flood test; parameters: key: 0 is no effect; 10 is complete control; details: for Plant response rating, Barnyardgrass: Postemergence (flood test species)
Method in brief: as §2

[3] = test system: duck salad (Heteranthera limosa); assay: Test B flood test; parameters: key: 0 is no effect; 10 is complete control; details: for Plant response rating, Ducksalad: Postemergence (flood test species)
Method in brief: as §2

[4] = test system: smallflower flatsedge (Cyperus difformis); assay: Test B flood test; parameters: key: 0 is no effect; 10 is complete control; details: for Plant response rating, S. Flatsedge: Postemergence (flood test species)
Method in brief: as §2

[5] = Preemergence, Rate 62 g/ha, scale of 0 to 10
[6] = Rate 62 g/ha, Postemergence (flood test)
[7] = Rate 125 g/ha, Postemergence section (flood test species)

Row | SMILES | Plant response rating, Blackgrass [1, 5] | Blackgrass plant response rating ([1]; Rate 62 g/ha, Postemergence) | Blackgrass plant response rating ([1]; Rate 125 g/ha, Postemergence) | Plant response rating, Blackgrass ([1]; Rate 125 g/ha, Preemergence) | Plant response rating, Blackgrass ([1]; Rate 250 g/ha, Postemergence) | Plant response rating, Blackgrass ([1]; Rate 250 g/ha, Preemergence) | Plant response rating, Blackgrass ([1]; Rate 500 g/ha, Postemergence) | Plant response rating, Blackgrass ([1]; Rate 500 g/ha, Preemergence) | Plant response rating, Wild oats (wild oat (Avena fatua); [5]) | Wild oats plant response rating (wild oat (Avena fatua); Rate 62 g/ha, Postemergence) | Wild oats plant response rating (wild oat (Avena fatua); Rate 125 g/ha, Postemergence) | Plant response rating, Wild oats (wild oat (Avena fatua); Rate 125 g/ha, Preemergence) | Plant response rating, Wild oats (wild oat (Avena fatua); Rate 250 g/ha, Postemergence) | Plant response rating, Wild oats (wild oat (Avena fatua); Rate 250 g/ha, Preemergence) | Plant response rating, Wild oats (wild oat (Avena fatua); Rate 500 g/ha, Postemergence) | Plant response rating, Wild oats (wild oat (Avena fatua); Rate 500 g/ha, Preemergence) | Rice plant response rating (rice (Oryza sativa); [6]) | Rice plant response rating (rice (Oryza sativa); [7]) | Plant response rating, Rice (rice (Oryza sativa); Rate 250 g/ha) | Plant response rating, Rice (rice (Oryza sativa); Rate 500 g/ha) | also measured
1 | Cc1cnc(-n2ccc(C(F)(F)F)n2)nc1C(=O)c1cccc(C(F)(F)F)c1 [Compound 59] | 2 | 2 | 3 | 3 | 5 | 7 | 6 | 9 | 7 | 1 | 1 | 8 | 3 | 9 | 6 | 9 | 2 | 3 | 4 | 6 | Barnyardgrass plant response rating [2, 6]: 3; Barnyardgrass plant response rating [2, 7]: 4; Plant response rating, Barnyardgrass ([2]; Rate 250 g/ha): 5; Plant response rating, Barnyardgrass ([2]; Rate 500 g/ha): 8; Ducksalad plant response rating [3, 6]: 3; Ducksalad plant response rating [3, 7]: 4; Plant response rating, Ducksalad ([3]; Rate 250 g/ha): 6; Plant response rating, Ducksalad ([3]; Rate 500 g/ha): 7; S. Flatsedge plant response rating [4, 6]: 7; S. Flatsedge plant response rating [4, 7]: 7; Plant response rating, S. Flatsedge ([4]; Rate 250 g/ha): 8; Plant response rating, S. Flatsedge ([4]; Rate 500 g/ha): 9
2 | Cc1cnc(-n2cnc(C(F)(F)F)c2)nc1C(=O)c1cccc(C(F)(F)F)c1 [Compound 61] | 1 | 3 | 4 | 3 | 6 | 5 | 8 | 8 | 4 | 3 | 3 | 5 | 3 | 7 | 5 | 8 | 0 | 0 | 2 | 2 | Barnyardgrass plant response rating [2, 6]: 2; Barnyardgrass plant response rating [2, 7]: 3; Plant response rating, Barnyardgrass ([2]; Rate 250 g/ha): 3; Plant response rating, Barnyardgrass ([2]; Rate 500 g/ha): 4; Ducksalad plant response rating [3, 6]: 0; Ducksalad plant response rating [3, 7]: 1; Plant response rating, Ducksalad ([3]; Rate 250 g/ha): 3; Plant response rating, Ducksalad ([3]; Rate 500 g/ha): 5; S. Flatsedge plant response rating [4, 6]: 3; S. Flatsedge plant response rating [4, 7]: 7; Plant response rating, S. Flatsedge ([4]; Rate 250 g/ha): 8; Plant response rating, S. Flatsedge ([4]; Rate 500 g/ha): 9
3 | Cc1cnc(-n2ccc(C(F)(F)C(F)(F)F)n2)nc1C(=O)c1cccc(OC(F)(F)F)c1 [Compound 62] | 1 | 1 | 1 | 1 | 2 | 1 | 4 | 5 | 1 | 1 | 1 | 3 | 1 | 4 | 3 | 4 | 0 | 0 | 0 | 0 | Barnyardgrass plant response rating [2, 6]: 1; Barnyardgrass plant response rating [2, 7]: 2; Plant response rating, Barnyardgrass ([2]; Rate 250 g/ha): 3; Plant response rating, Barnyardgrass ([2]; Rate 500 g/ha): 4; Ducksalad plant response rating [3, 6]: 0; Ducksalad plant response rating [3, 7]: 0; Plant response rating, Ducksalad ([3]; Rate 250 g/ha): 0; Plant response rating, Ducksalad ([3]; Rate 500 g/ha): 2; S. Flatsedge plant response rating [4, 6]: 3; S. Flatsedge plant response rating [4, 7]: 6; Plant response rating, S. Flatsedge ([4]; Rate 250 g/ha): 7; Plant response rating, S. Flatsedge ([4]; Rate 500 g/ha): 8
4 | Cc1cnc(-n2cnc(C(F)(F)F)c2)nc1C(=O)c1cccc(OC(F)(F)F)c1 [Compound 63] | 2 | 2 | 3 | 3 | 3 | 8 | 6 | 9 | 3 | 3 | 2 | 3 | 2 | 5 | 2 | 8 | 0 | 0 | 1 | 1 | Barnyardgrass plant response rating [2, 6]: 1; Barnyardgrass plant response rating [2, 7]: 3; Plant response rating, Barnyardgrass ([2]; Rate 250 g/ha): 3; Plant response rating, Barnyardgrass ([2]; Rate 500 g/ha): 3; Ducksalad plant response rating [3, 6]: 0; Ducksalad plant response rating [3, 7]: 0; Plant response rating, Ducksalad ([3]; Rate 250 g/ha): 2; Plant response rating, Ducksalad ([3]; Rate 500 g/ha): 6; S. Flatsedge plant response rating [4, 6]: 4; S. Flatsedge plant response rating [4, 7]: 7; Plant response rating, S. Flatsedge ([4]; Rate 250 g/ha): 8; Plant response rating, S. Flatsedge ([4]; Rate 500 g/ha): 9
5 | Cc1cnc(-n2cnc(C(F)(F)F)n2)nc1C(=O)c1cccc(OC(F)(F)F)c1 [Compound 64] | 5 | 4 | 5 | 6 | 7 | 6 | 9 | 9 | 3 | 3 | 4 | 4 | 5 | 5 | 7 | 9 | 1 | 1 | 2 | 3 | Barnyardgrass plant response rating [2, 6]: 2; Barnyardgrass plant response rating [2, 7]: 3; Plant response rating, Barnyardgrass ([2]; Rate 250 g/ha): 4; Plant response rating, Barnyardgrass ([2]; Rate 500 g/ha): 5; Ducksalad plant response rating [3, 6]: 4; Ducksalad plant response rating [3, 7]: 6; Plant response rating, Ducksalad ([3]; Rate 250 g/ha): 6; Plant response rating, Ducksalad ([3]; Rate 500 g/ha): 9; S. Flatsedge plant response rating [4, 6]: 8; S. Flatsedge plant response rating [4, 7]: 8; Plant response rating, S. Flatsedge ([4]; Rate 250 g/ha): 8; Plant response rating, S. Flatsedge ([4]; Rate 500 g/ha): 9
